This is an account of results in US20260263543A1, “COMPOSITIONS AND METHODS TO INCREASE PRODUCTION OF GAMMA-AMINOBUTYRIC ACID” (Verb Biotics, priority 2023, published 2026).

Assay [1] has as its system GABA production. Put plainly: Synthesis of GABA in vitro (conversion of glutamate to GABA in culture). Particulars: cultures grown under anaerobic conditions at ~37° C. for 48 hours; data not shown. It counts as cell-based, Lactiplantibacillus plantarum. The method, then: The Lactiplantibacillus plantarum Lp815 strain was assessed for its ability to convert glutamate to GABA in vitro. Overnight, stationary phase cultures (16-18 h) of L. plantarum Lp815 were used to inoculate 3 mL of fresh media at an optical density of ~0.05 as measured at 600 nm by a spectrophotometer (OD600). Multiple media types can be used, including rich media (e.g., MRS broth) or minimal media supplemented with the necessary components to support growth. The media can further be supplemented with L (+)-glutamic acid or a salt thereof and/or piperazine-N,N′-bis(2-ethanesulfonic acid) (PIPES). Cultures were grown under anerobic conditions at ~37° C. for 48 hours.

Assay [2] concerns healthy adults. Description: Urine GABA and 5-HIAA levels in human participants after Lp815 supplementation. It counts as in vivo. Particulars: week 4, 1×10^9 cfu/day for 4 weeks. The method, then:
The Lactiplantibacillus plantarum Lp815 strain was assessed for its ability to increase GABA levels in human participants. Eight healthy adults (5 female, 3 male) provided a urine sample at baseline (T=0). Urine was analyzed for GABA and 5-HIAA levels using the Neurotransmitter Basic Panel (available from Life Extension/National Diagnostics, Inc.). 5-HIAA is a metabolite of serotonin and indicative of serotonin levels in a subject. Participants with GABA levels in the high range at baseline ([…] GABA) were excluded from the study. Participants proceeded to take the Lp815 probiotic at 1×10^9 cfu/day for 4 weeks. Participants refrained from beginning any new treatments, using antibiotics, or taking any additional probiotic products.
After 4 weeks of supplementation, a second urine sample was collected and GABA levels measured. […] Additionally, levels of 5-HIAA were increased by approximately 10% at week 4 relative to baseline (FIG. 1B).

The subject of assay [3] is Participants with self-reported mild to moderate anxiety. Put plainly: Double blind, randomized, placebo-controlled study of GAD-7 generalized anxiety scores. Type of assay: in vivo, human. The following applies: 1×10^9 CFU or 5×10^9 CFU daily; weeks 2, 4, and 6; FIG. 2. The method, then:
A double blind, randomized, placebo-controlled study was conducted to assess the impact of Lactiplantibacillus plantarum Lp815 on generalized anxiety scores. Participants with self-reported mild to moderate anxiety as measured by the GAD-7 questionnaire were enrolled in a six week trial. Participants with severe anxiety were excluded.
The GAD-7 questionnaire is a self-reported questionnaire that assesses anxiety levels based on 7 questions as measured over the last two weeks: 1) feeling nervous, anxious, or on edge, 2) not being able to stop or control worrying, 3) worrying too much about different things, 4) trouble relaxing, 5) being so restless that it is hard to sit still, 6) becoming easily annoyed or irritable, and 7) feeling afraid as if something awful might happen. For each question, a score of 0 (not at all), 1 (several days), 2 (more than half the days), or 3 (nearly every day) is assigned. The total score is a sum across the seven questions. A total score of 0-4 indicates minimal anxiety, 5-9 indicates mild anxiety, 10-14 indicates moderate anxiety, and 15-21 indicates severe anxiety.
Participants were divided into either placebo, 1×10^9 CFU daily of Lp815 or 5×10^9 CFU daily of Lp815. The GAD-7 questionnaire was administered at baseline, 2 weeks, 4 weeks and 6 weeks following supplementation.

In the case of Lactiplantibacillus plantarum Lp815, the GABA production result in assay [1] is given as “increase in GABA production”. For the same substance, the “GABA levels increase relative to baseline” value in assay [2] (FIG. 1A) is given as “approximately 20%”. Moreover, in assay [2] (FIG. 1B), the “levels of 5-HIAA increase relative to baseline” value was “approximately 10%”. The “decrease in GAD-7 scores relative to baseline” value in assay [3] is 10-15 points.
